Results on 24 compounds are retold here after patent publication US10730874B2 (Shire Human Genetic Therapies, Inc., priority 2018, dated 2020).

Each structure is given as a SMILES string.

Chain of human activated kallikrein enzyme (plasma kallikrein) (P03952 391-638): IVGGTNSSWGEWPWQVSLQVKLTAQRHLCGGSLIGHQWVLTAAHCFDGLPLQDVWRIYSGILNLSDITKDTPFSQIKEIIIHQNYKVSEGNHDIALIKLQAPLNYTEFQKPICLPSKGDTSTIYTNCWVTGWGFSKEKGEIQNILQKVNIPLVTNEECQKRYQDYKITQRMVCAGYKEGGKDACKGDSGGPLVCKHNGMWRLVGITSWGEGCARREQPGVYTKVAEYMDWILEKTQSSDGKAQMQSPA
Chain of human activated kallikrein enzyme (plasma kallikrein) (P03952 20-390 partner): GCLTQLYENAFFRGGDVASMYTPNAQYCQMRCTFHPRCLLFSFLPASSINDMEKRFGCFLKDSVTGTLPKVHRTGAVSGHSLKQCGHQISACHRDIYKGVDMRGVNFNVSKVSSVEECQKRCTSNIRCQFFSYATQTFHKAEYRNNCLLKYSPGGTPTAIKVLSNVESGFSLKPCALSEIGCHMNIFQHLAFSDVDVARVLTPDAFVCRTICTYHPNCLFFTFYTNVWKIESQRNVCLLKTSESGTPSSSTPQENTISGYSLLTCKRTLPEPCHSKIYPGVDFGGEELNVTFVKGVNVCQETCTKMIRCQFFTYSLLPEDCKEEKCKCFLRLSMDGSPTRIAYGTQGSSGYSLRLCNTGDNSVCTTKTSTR

The assay has as its target human activated kallikrein enzyme (plasma kallikrein) (Homo sapiens (Human), UniProt P03952). Kind of assay: Inhibition of human activated plasma kallikrein, fluorogenic peptide substrate assay, 500 pM enzyme format. In kind it is biochemical. The conditions noted are these: 500 pM activated kallikrein enzyme, 300 uM Pro-Phe-Arg-7-amido-4-methylcoumarin substrate, 30 min preincubation, 10 min at RT; read-out: Primary Dose Response Assay: Average EC50. Summed up:
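Buffer 20 mM Tris pH 7.5, EDTA, NaCl, PEG-400, Triton X-100; 300 uM Pro-Phe-Arg-AMC; enzyme–inhibitor preincubation 30 min RT. Format one: 500 pM kallikrein, 10 min RT reaction; format two: 5 pM kallikrein, 18 h RT reaction. Fluorescence read at 460 nm (380 nm excitation).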
What is called EC50 is the concentration needed to bring the measured effect to its halfway point. `COC(=O)Cn1c(Cn2cc(C(=O)NCc3ncn4ccc(Cl)c(F)c34)nn2)cc2cc(C3CC3)ccc21` [Example I-246, methyl 2-(2-((4-(((7-chloro-8-fluoroimidazo[1,5-a]pyridin-1-yl)methyl)carbamoyl)-1H-1,2,3-triazol-1-yl)methyl)-5-cyclopropyl-1H-indol-1-yl)acetate]: the EC50 is less than 1 nM.

As for `O=C(NCc1ncn2ccc(Cl)c(F)c12)c1cn(Cc2cn3cc(C4CC4)cc(-n4cn[nH]c(=O)c4=O)c3n2)nn1` [Example I-247, N-((7-chloro-8-fluoroimidazo[1,5-a]pyridin-1-yl)methyl)-1-((6-cyclopropyl-8-(5,6-dioxo-5,6-dihydro-1,2,4-triazin-4(1H)-yl)imidazo[1,2-a]pyridin-2-yl)methyl)-1H-1,2,3-triazole-4-carboxamide], the half-maximal effective concentration (EC50) is less than 1 nM.

For `CCOC(=O)c1nncn1-c1cc(C2CC2)cn2cc(Cn3cc(C(=O)NCc4ncn5ccc(Cl)c(F)c45)nn3)nc12` [Example I-248, ethyl 4-(2-((4-(((7-chloro-8-fluoroimidazo[1,5-a]pyridin-1-yl)methyl)carbamoyl)-1H-1,2,3-triazol-1-yl)methyl)-6-cyclopropylimidazo[1,2-a]pyridin-8-yl)-4H-1,2,4-triazole-3-carboxylate], the EC50 is less than 1 nM.

As to `Cc1nncn1-c1cc(C2CC2)cn2cc(Cn3cc(C(=O)NCc4ncn5ccc(Cl)c(F)c45)nn3)nc12` [Example I-249, N-((7-chloro-8-fluoroimidazo[1,5-a]pyridin-1-yl)methyl)-1-((6-cyclopropyl-8-(3-methyl-4H-1,2,4-triazol-4-yl)imidazo[1,2-a]pyridin-2-yl)methyl)-1H-1,2,3-triazole-4-carboxamide], the EC50 is less than 1 nM.

As for `O=C(NCc1ncn2ccc(Cl)c(F)c12)c1cn(Cc2cn3cc(C4CC4)cc(N4CC5(COC5)C4)c3n2)nn1` [Example I-250, N-((7-chloro-8-fluoroimidazo[1,5-a]pyridin-1-yl)methyl)-1-((6-cyclopropyl-8-(2-oxa-6-azaspiro[3.3]heptan-6-yl)imidazo[1,2-a]pyridin-2-yl)methyl)-1H-1,2,3-triazole-4-carboxamide], the EC50 was less than 1 nM.

On to `O=C(O)CCn1c(Cn2cc(C(=O)NCc3ncn4ccc(Cl)c(F)c34)nn2)cc2cc(C3CC3)ccc21` [Example I-251b, 3-(2-((4-(((7-chloro-8-fluoroimidazo[1,5-a]pyridin-1-yl)methyl)carbamoyl)-1H-1,2,3-triazol-1-yl)methyl)-5-cyclopropyl-1H-indol-1-yl)propanoic acid], for which the EC50 was less than 1 nM.

As for `O=C(NCc1ncn2ccc(Cl)c(F)c12)c1cn(Cc2nc3ccc(C4CC4)cc3s2)nn1` [Example I-252, N-((7-chloro-8-fluoroimidazo[1,5-a]pyridin-1-yl)methyl)-1-((6-cyclopropylbenzo[d]thiazol-2-yl)methyl)-1H-1,2,3-triazole-4-carboxamide], the EC50 lay in the range of 10 to 100 nM.

`Cc1nnc(C)n1-c1cc(C2CC2)cn2cc(Cn3cc(C(=O)NCc4ncn5ccc(Cl)c(F)c45)nn3)nc12` [Example I-253, N-((7-chloro-8-fluoroimidazo[1,5-a]pyridin-1-yl)methyl)-1-((6-cyclopropyl-8-(3,5-dimethyl-4H-1,2,4-triazol-4-yl)imidazo[1,2-a]pyridin-2-yl)methyl)-1H-1,2,3-triazole-4-carboxamide]: the EC50 is less than 1 nM.

For `COC(=O)c1ccc(-n2c(Cn3cc(C(=O)NCc4ncn5ccc(Cl)c(F)c45)nn3)cc3cc(C4CC4)ccc32)cc1` [Example I-254, methyl 4-(2-((4-(((7-chloro-8-fluoroimidazo[1,5-a]pyridin-1-yl)methyl)carbamoyl)-1H-1,2,3-triazol-1-yl)methyl)-5-cyclopropyl-1H-indol-1-yl)benzoate], the EC50 lay within 1 to 10 nM.

Regarding `O=C(NCc1ncn2ccc(Cl)c(F)c12)c1cn(Cc2nc3cc(C4CC4)cc(Cl)n3n2)nn1` [Example I-255, 1-((5-chloro-7-cyclopropyl-[1,2,4]triazolo[1,5-a]pyridin-2-yl)methyl)-N-((7-chloro-8-fluoroimidazo[1,5-a]pyridin-1-yl)methyl)-1H-1,2,3-triazole-4-carboxamide], the EC50 is less than 1 nM.

Turning to `O=C(NCc1ncn2ccc(Cl)c(F)c12)c1cn(Cc2cc3ccc(C4CC4)cn3c2)nn1` [Example I-256, N-((7-chloro-8-fluoroimidazo[1,5-a]pyridin-1-yl)methyl)-1-((6-cyclopropylindolizin-2-yl)methyl)-1H-1,2,3-triazole-4-carboxamide], the EC50 was 1 to 10 nM.

Take `Cc1ncc(-c2cc(C3CC3)cn3cc(Cn4cc(C(=O)NCc5ncn6ccc(Cl)c(F)c56)nn4)nc23)s1` [Example I-257, N-((7-chloro-8-fluoroimidazo[1,5-a]pyridin-1-yl)methyl)-1-((6-cyclopropyl-8-(2-methylthiazol-5-yl)imidazo[1,2-a]pyridin-2-yl)methyl)-1H-1,2,3-triazole-4-carboxamide]: the EC50 is less than 1 nM.

For `Cc1ncn(-c2cc(C3CC3)cn3cc(Cn4cc(C(=O)NCc5ncn6ccc(Cl)c(F)c56)nn4)nc23)n1` [Example I-258, N-((7-chloro-8-fluoroimidazo[1,5-a]pyridin-1-yl)methyl)-1-((6-cyclopropyl-8-(3-methyl-1H-1,2,4-triazol-1-yl)imidazo[1,2-a]pyridin-2-yl)methyl)-1H-1,2,3-triazole-4-carboxamide], the EC50 was less than 1 nM.

In the case of `O=C(O)c1ccc(-n2c(Cn3cc(C(=O)NCc4ncn5ccc(Cl)c(F)c45)nn3)cc3cc(C4CC4)ccc32)cc1` [Example I-259, 4-(2-((4-(((7-chloro-8-fluoroimidazo[1,5-a]pyridin-1-yl)methyl)carbamoyl)-1H-1,2,3-triazol-1-yl)methyl)-5-cyclopropyl-1H-indol-1-yl)benzoic acid], the EC50 fell in the range of 1 to 10 nM.

As to `CCOC(=O)c1nc(C(=O)NCc2ncn3ccc(Cl)c(F)c23)cn1Cc1cn2cc(C3CC3)ccc2n1` [Example I-260], the EC50 was less than 1 nM.

Take `O=C(NCc1ncn2ccc(Cl)c(F)c12)c1cn(Cc2cn3cc(C4CC4)ccc3n2)c(C(=O)O)n1` [Example I-261, 4-(((7-chloro-8-fluoroimidazo[1,5-a]pyridin-1-yl)methyl)carbamoyl)-1-((6-cyclopropylimidazo[1,2-a]pyridin-2-yl)methyl)-1H-imidazole-2-carboxylic acid]: the EC50 was less than 1 nM.

Take `O=C(NCc1ncn2ccc(Cl)c(F)c12)c1cn(Cc2cc3cc(C4CC4)cc(N4CCCC4=O)n3n2)nn1` [Example I-262, N-((7-chloro-8-fluoroimidazo[1,5-a]pyridin-1-yl)methyl)-1-((5-cyclopropyl-7-(2-oxopyrrolidin-1-yl)pyrazolo[1,5-a]pyridin-2-yl)methyl)-1H-1,2,3-triazole-4-carboxamide]: the EC50 is less than 1 nM.

As to `O=C(NCc1ncn2ccc(Cl)c(F)c12)c1cn(Cc2cn3cc(C4CC4)cc(-c4cncs4)c3n2)nn1` [Example I-263, N-((7-chloro-8-fluoroimidazo[1,5-a]pyridin-1-yl)methyl)-1-((6-cyclopropyl-8-(thiazol-5-yl)imidazo[1,2-a]pyridin-2-yl)methyl)-1H-1,2,3-triazole-4-carboxamide], the concentration giving a half-maximal response (EC50) was less than 1 nM.

With `O=C(NCc1ncn2ccc(Cl)c(F)c12)c1cn(Cc2cn3cc(C4CC4)cc(N4CCOC(C(=O)O)C4)c3n2)nn1` (stereo not drawn) [Example I-264, 4-(2-((4-(((7-chloro-8-fluoroimidazo[1,5-a]pyridin-1-yl)methyl)carbamoyl)-1H-1,2,3-triazol-1-yl)methyl)-6-cyclopropylimidazo[1,2-a]pyridin-8-yl)morpholine-2-carboxylic acid], the EC50 is less than 1 nM.

With `COC(=O)C1CN(c2cc(C3CC3)nn3cc(Cn4cc(C(=O)NCc5ncn6ccc(Cl)c(F)c56)nn4)nc23)C1` [Example I-265a, methyl 1-(2-((4-(((7-chloro-8-fluoroimidazo[1,5-a]pyridin-1-yl)methyl)carbamoyl)-1H-1,2,3-triazol-1-yl)methyl)-6-cyclopropylimidazo[1,2-b]pyridazin-8-yl)azetidine-3-carboxylate], the 50% effective concentration (EC50) was less than 1 nM.

On to `O=C(NCc1ncn2ccc(Cl)c(F)c12)c1cn(Cc2cn3nc(C4CC4)cc(N4CC(C(=O)O)C4)c3n2)nn1` [Example I-265b, 1-(2-((4-(((7-chloro-8-fluoroimidazo[1,5-a]pyridin-1-yl)methyl)carbamoyl)-1H-1,2,3-triazol-1-yl)methyl)-6-cyclopropylimidazo[1,2-b]pyridazin-8-yl)azetidine-3-carboxylic acid], for which the EC50 was less than 1 nM.

As to `COC(=O)C1CCN(c2cc(C3CC3)nn3cc(Cn4cc(C(=O)NCc5ncn6ccc(Cl)c(F)c56)nn4)nc23)C1` (stereo not drawn) [Example I-266, methyl 1-(2-((4-(((7-chloro-8-fluoroimidazo[1,5-a]pyridin-1-yl)methyl)carbamoyl)-1H-1,2,3-triazol-1-yl)methyl)-6-cyclopropylimidazo[1,2-b]pyridazin-8-yl)pyrrolidine-3-carboxylate], the EC50 was less than 1 nM.

As for `O=C(NCc1ncn2ccc(Cl)c(F)c12)c1cn(Cc2cn3nc(C4CC4)cc(N4CCC(C(=O)O)C4)c3n2)nn1` (stereo not drawn) [Example I-267, 1-(2-((4-(((7-chloro-8-fluoroimidazo[1,5-a]pyridin-1-yl)methyl)carbamoyl)-1H-1,2,3-triazol-1-yl)methyl)-6-cyclopropylimidazo[1,2-b]pyridazin-8-yl)pyrrolidine-3-carboxylic acid], the EC50 was less than 1 nM.

`CCOC(=O)c1c(Cn2cc(C(=O)NCc3ncn4ccc(Cl)c(F)c34)nn2)cc2ccc(C3CC3)cn12` [Example I-268, ethyl 2-((4-(((7-chloro-8-fluoroimidazo[1,5-a]pyridin-1-yl)methyl)carbamoyl)-1H-1,2,3-triazol-1-yl)methyl)-6-cyclopropylindolizine-3-carboxylate]: the EC50 fell in the range of 1 to 10 nM.
